{"source": "paper PMC6934184", "about": "“Selective DNA-PKcs inhibition extends the therapeutic index of localized radiotherapy and chemotherapy” (The Journal of Clinical Investigation, 2019)", "molecular_target": "T1, RPS6KA1 (RSK1) (Homo sapiens, UniProt Q15418)", "T1 construct": "purchased Thermo Fisher Scientific (Life Technologies) SelectScreen", "T1 sequence (Q15418 whole entry)": "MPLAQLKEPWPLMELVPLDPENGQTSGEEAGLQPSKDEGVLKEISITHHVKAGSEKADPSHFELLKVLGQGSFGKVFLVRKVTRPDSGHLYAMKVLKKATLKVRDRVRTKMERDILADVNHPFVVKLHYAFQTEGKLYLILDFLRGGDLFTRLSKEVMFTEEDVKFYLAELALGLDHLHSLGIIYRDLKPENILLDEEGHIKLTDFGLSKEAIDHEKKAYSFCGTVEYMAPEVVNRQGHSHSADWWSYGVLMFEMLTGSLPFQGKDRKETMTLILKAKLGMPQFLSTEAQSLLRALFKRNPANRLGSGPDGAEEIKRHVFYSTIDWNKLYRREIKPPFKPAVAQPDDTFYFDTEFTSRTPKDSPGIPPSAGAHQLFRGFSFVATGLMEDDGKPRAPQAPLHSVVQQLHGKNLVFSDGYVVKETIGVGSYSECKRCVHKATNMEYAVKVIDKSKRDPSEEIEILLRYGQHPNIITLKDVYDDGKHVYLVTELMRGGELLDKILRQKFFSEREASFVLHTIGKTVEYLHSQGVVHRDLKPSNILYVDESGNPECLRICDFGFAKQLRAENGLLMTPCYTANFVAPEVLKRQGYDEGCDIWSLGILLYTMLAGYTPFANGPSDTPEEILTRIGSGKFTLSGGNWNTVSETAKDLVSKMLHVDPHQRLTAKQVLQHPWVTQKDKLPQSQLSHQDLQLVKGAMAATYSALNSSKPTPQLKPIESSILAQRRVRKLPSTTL", "experiment": "SelectScreen Z'LYTE", "format": "biochemical", "how_it_was_run": "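SelectScreen broad panel; activity (Z'LYTE, Adapta) plus binding formats. ATP: Km app for CSF1R Z'LYTE; 10 for CAMK1 Adapta. Readout = % per kinase.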", "data": [{"smiles": "CN(C(=O)CN1CCOCC1)c1ccc2sc3c(-c4cccc5c(=O)cc(N6CC7CCC(C6)O7)oc45)cccc3c2c1", "note": "[NU5455]", "values": [{"measurement": "inhibition at 1 µM", "value": 5.7, "unit": "%"}]}]}
